# In patent US12049450B2, “Pyridyloxy-carboxylate derivative and preparation method therefor, herbicidal composition, and use” (Qingdao Kingagroot Chemical Compound Co., Ltd., priority 2018, dated 2024):
# How the values were obtained:
# Experiment in all cases: Post-emergence test experiment (greenhouse pot, spray at 2-3 leaf stage)
# Format in all cases: in vivo
# Conditions in all cases: 1000 g/ha; post-emergence spray at 2-3 leaf stage; assessed after 3 weeks; fresh weight inhibition rate
# [1] = test system: Echinochloa crusgalli
# Procedure, shortened: (§1)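 Weed seeds sown in soil-filled pots in greenhouse, sprayed at 2-3 leaf stage (2 weeks after sowing) with compound in acetone/tween-80 plus methyl oleate emulsible concentrate (1.5 L/ha) diluted in water. Fresh-weight growth inhibition scored after 3 weeks on 0-5 scale (5: >85%, 0: <5%).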
# [2] = test system: Digitaria sanguinalis
# Procedure, shortened: as §1
# [3] = test system: Abutilon theophrasti
# Procedure, shortened: as §1
# [4] = test system: Galium spurium
# Procedure, shortened: as §1
# [5] = test system: Monochoria vaginalis
# Procedure, shortened: as §1
SMILES,Activity level (growth inhibition rate) Echinochloa crusgalli [1],Activity level (growth inhibition rate) Digitaria sanguinalis [2],Activity level (growth inhibition rate) Abutilon theophrasti [3],Activity level (growth inhibition rate) Galium spurium [4],Activity level (growth inhibition rate) Monochoria Vaginalis [5]
CC(Oc1nc(F)c(Cl)c(N)c1Cl)C(=O)SCc1nccs1 (stereo not shown) [Compound 156],5 (Level 5: the growth inhibition rate is greater than 85%),5 (Level 5: the growth inhibition rate is greater than 85%),5 (Level 5: the growth inhibition rate is greater than 85%),5 (Level 5: the growth inhibition rate is greater than 85%),5 (Level 5: the growth inhibition rate is greater than 85%)
Cc1ncc(COC(=O)C(C)Oc2nc(F)c(Cl)c(N)c2Cl)s1 (stereo not shown) [Compound 157],5 (Level 5: the growth inhibition rate is greater than 85%),5 (Level 5: the growth inhibition rate is greater than 85%),5 (Level 5: the growth inhibition rate is greater than 85%),5 (Level 5: the growth inhibition rate is greater than 85%),5 (Level 5: the growth inhibition rate is greater than 85%)
CC(Oc1nc(F)c(Cl)c(N)c1Cl)C(=O)OCc1cscn1 (stereo not shown) [Compound 158],5 (Level 5: the growth inhibition rate is greater than 85%),5 (Level 5: the growth inhibition rate is greater than 85%),5 (Level 5: the growth inhibition rate is greater than 85%),5 (Level 5: the growth inhibition rate is greater than 85%),5 (Level 5: the growth inhibition rate is greater than 85%)
CC(Oc1nc(F)c(Cl)c(N)c1Cl)C(=O)SCc1cncs1 (stereo not shown) [Compound 159],5 (Level 5: the growth inhibition rate is greater than 85%),5 (Level 5: the growth inhibition rate is greater than 85%),5 (Level 5: the growth inhibition rate is greater than 85%),5 (Level 5: the growth inhibition rate is greater than 85%),5 (Level 5: the growth inhibition rate is greater than 85%)
CC(Oc1nc(F)c(Cl)c(N)c1Cl)C(=O)OCc1ccns1 (stereo not shown) [Compound 160],5 (Level 5: the growth inhibition rate is greater than 85%),5 (Level 5: the growth inhibition rate is greater than 85%),5 (Level 5: the growth inhibition rate is greater than 85%),5 (Level 5: the growth inhibition rate is greater than 85%),5 (Level 5: the growth inhibition rate is greater than 85%)
CC(Oc1nc(F)c(Cl)c(N)c1Cl)C(=O)SCc1ccsn1 (stereo not shown) [Compound 161],5 (Level 5: the growth inhibition rate is greater than 85%),5 (Level 5: the growth inhibition rate is greater than 85%),5 (Level 5: the growth inhibition rate is greater than 85%),5 (Level 5: the growth inhibition rate is greater than 85%),5 (Level 5: the growth inhibition rate is greater than 85%)
CC(Oc1nc(F)c(Cl)c(N)c1Cl)C(=O)OCCc1cnsc1 (stereo not shown) [Compound 162],5 (Level 5: the growth inhibition rate is greater than 85%),5 (Level 5: the growth inhibition rate is greater than 85%),5 (Level 5: the growth inhibition rate is greater than 85%),5 (Level 5: the growth inhibition rate is greater than 85%),5 (Level 5: the growth inhibition rate is greater than 85%)
CC(Oc1nc(F)c(Cl)c(N)c1Cl)C(=O)OCc1nccs1 (stereo not shown) [Compound 163],5 (Level 5: the growth inhibition rate is greater than 85%),5 (Level 5: the growth inhibition rate is greater than 85%),5 (Level 5: the growth inhibition rate is greater than 85%),5 (Level 5: the growth inhibition rate is greater than 85%),5 (Level 5: the growth inhibition rate is greater than 85%)
CC(Oc1nc(F)c(Cl)c(N)c1Cl)C(=O)OCc1nncs1 (stereo not shown) [Compound 164],5 (Level 5: the growth inhibition rate is greater than 85%),5 (Level 5: the growth inhibition rate is greater than 85%),5 (Level 5: the growth inhibition rate is greater than 85%),5 (Level 5: the growth inhibition rate is greater than 85%),5 (Level 5: the growth inhibition rate is greater than 85%)
CC(Oc1nc(F)c(Cl)c(N)c1Cl)C(=O)SCCc1ncsn1 (stereo not shown) [Compound 165],5 (Level 5: the growth inhibition rate is greater than 85%),5 (Level 5: the growth inhibition rate is greater than 85%),5 (Level 5: the growth inhibition rate is greater than 85%),5 (Level 5: the growth inhibition rate is greater than 85%),5 (Level 5: the growth inhibition rate is greater than 85%)
CC(Oc1nc(F)c(Cl)c(N)c1Cl)C(=O)OCc1cnns1 (stereo not shown) [Compound 166],5 (Level 5: the growth inhibition rate is greater than 85%),5 (Level 5: the growth inhibition rate is greater than 85%),5 (Level 5: the growth inhibition rate is greater than 85%),5 (Level 5: the growth inhibition rate is greater than 85%),5 (Level 5: the growth inhibition rate is greater than 85%)
CC(Oc1nc(F)c(Cl)c(N)c1Cl)C(=O)OCc1ncns1 (stereo not shown) [Compound 167],5 (Level 5: the growth inhibition rate is greater than 85%),5 (Level 5: the growth inhibition rate is greater than 85%),5 (Level 5: the growth inhibition rate is greater than 85%),5 (Level 5: the growth inhibition rate is greater than 85%),5 (Level 5: the growth inhibition rate is greater than 85%)
CC(Oc1nc(F)c(Cl)c(N)c1Cl)C(=O)SCc1csnn1 (stereo not shown) [Compound 168],5 (Level 5: the growth inhibition rate is greater than 85%),5 (Level 5: the growth inhibition rate is greater than 85%),5 (Level 5: the growth inhibition rate is greater than 85%),5 (Level 5: the growth inhibition rate is greater than 85%),5 (Level 5: the growth inhibition rate is greater than 85%)
CC(Oc1nc(F)c(Cl)c(N)c1Cl)C(=O)OCC1C=C2C=CC=CC2N1 (stereo not shown) [Compound 169],5 (Level 5: the growth inhibition rate is greater than 85%),5 (Level 5: the growth inhibition rate is greater than 85%),5 (Level 5: the growth inhibition rate is greater than 85%),5 (Level 5: the growth inhibition rate is greater than 85%),5 (Level 5: the growth inhibition rate is greater than 85%)
CC(Oc1nc(F)c(Cl)c(N)c1Cl)C(=O)SCc1nc2ccccc2[nH]1 (stereo not shown) [Compound 170],5 (Level 5: the growth inhibition rate is greater than 85%),5 (Level 5: the growth inhibition rate is greater than 85%),5 (Level 5: the growth inhibition rate is greater than 85%),5 (Level 5: the growth inhibition rate is greater than 85%),5 (Level 5: the growth inhibition rate is greater than 85%)
CC(Oc1nc(F)c(Cl)c(N)c1Cl)C(=O)OCc1ccc2c(ccn2C)c1 (stereo not shown) [Compound 171],5 (Level 5: the growth inhibition rate is greater than 85%),5 (Level 5: the growth inhibition rate is greater than 85%),5 (Level 5: the growth inhibition rate is greater than 85%),5 (Level 5: the growth inhibition rate is greater than 85%),5 (Level 5: the growth inhibition rate is greater than 85%)
CCn1cnc2ccc(COC(=O)C(C)Oc3nc(F)c(Cl)c(N)c3Cl)cc21 (stereo not shown) [Compound 172],5 (Level 5: the growth inhibition rate is greater than 85%),5 (Level 5: the growth inhibition rate is greater than 85%),5 (Level 5: the growth inhibition rate is greater than 85%),5 (Level 5: the growth inhibition rate is greater than 85%),5 (Level 5: the growth inhibition rate is greater than 85%)
